Laboratory results reported in ChEMBL document CHEMBL1201862, “PubChem BioAssay data set” (2004).
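Growth conditions: 96-well plates. Treatment: test compound, 48 hours, 5 concentrations. Analysis: linear interpolation between bracketing concentrations; unreached endpoints set to highest concentration. GI50 = concentration required for 50% inhibition of growth.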 The source made the active and inactive calls. No stated cut-off is given here; in the data, active = GI50 up to about 1.1 µM and inactive = higher.

What was measured:
Assay in all cases: NCI-60 cell line screen, 48 h
[1] = tested on: RPMI-8226
[2] = tested on: SF-268
[3] = tested on: SK-OV-3
[4] = tested on: HCT-116
[5] = tested on: 786-0
[6] = tested on: HCT-15
[7] = tested on: SR
[8] = tested on: SW-620
[9] = tested on: MOLT-4
[10] = tested on: OVCAR-8
[11] = tested on: HT-29
[12] = tested on: M14
[13] = tested on: CCRF-CEM
[14] = tested on: SK-MEL-5
[15] = tested on: OVCAR-4
[16] = tested on: HOP-92
[17] = tested on: HCC 2998
[18] = tested on: UO-31
[19] = tested on: ACHN
[20] = tested on: EKVX

| SMILES | GI50 [1] | GI50 [2] | GI50 [3] | GI50 [4] | GI50 [5] | GI50 [6] | GI50 [7] | GI50 [8] | GI50 [9] | GI50 [10] | GI50 [11] | GI50 [12] | GI50 [13] | GI50 [14] | GI50 [15] | GI50 [16] | GI50 [17] | GI50 [18] | GI50 [19] | GI50 [20] |
| --- | --- | --- | --- | --- | --- | --- | --- | --- | --- | --- | --- | --- | --- | --- | --- | --- | --- | --- | --- | --- |
| CC12C/C(=C\c3ccccc3)C(=O)C3C1CCCC32 | 34.2 µM (inactive) | > 100 µM (inactive) | > 100 µM (inactive) | 67.8 µM (inactive) | 95.9 µM (inactive) | > 100 µM | 36.8 µM (inactive) | > 100 µM (inactive) | 21.5 µM (inactive) | > 100 µM (inactive) | 31.6 µM (inactive) | > 100 µM (inactive) | 33.3 µM (inactive) | 46 µM (inactive) | 66.4 µM (inactive) | > 100 µM (inactive) | 44.5 µM (inactive) | > 100 µM (inactive) | > 100 µM (inactive) |  |
| O=[N+]([O-])c1ccc(N/N=C(\c2ccccc2)c2ccccn2)nc1 | 0.59 µM (active) | 2.51 µM (inactive) | 4.86 µM (inactive) | 0.21 µM (active) | 0.906 µM (active) | 0.151 µM | 1.48 µM (inactive) | 0.223 µM (active) |  | 0.914 µM (active) | 0.0253 µM (active) | 0.182 µM (active) | < 0.0218 µM (active) | 1.85 µM (inactive) | 18.7 µM (inactive) | 10.5 µM (inactive) | 5.46 µM (inactive) | 0.817 µM (active) | 0.0785 µM (active) | 0.171 µM (active) |
| COc1ccc(/C=C2/CCS(=O)(=O)c3ccc(C)cc3C2=O)cc1OC | 11.7 µM (inactive) | 20.5 µM (inactive) | 21.6 µM (inactive) | 10.2 µM (inactive) | 11.4 µM (inactive) | 7.18 µM | 20.6 µM (inactive) | 22.8 µM (inactive) | 12.1 µM (inactive) | 12.3 µM (inactive) | 13.9 µM (inactive) | 17.2 µM (inactive) | 8.75 µM (inactive) |  | 11.3 µM (inactive) | 2.36 µM (inactive) | 6.47 µM (inactive) | 7.48 µM (inactive) | 12.9 µM (inactive) | 13.7 µM (inactive) |
| CNC(=S)Nc1ccc(OC)c2ccccc12 | > 10 µM (inactive) | > 10 µM (inactive) | > 10 µM (inactive) | > 10 µM (inactive) | > 10 µM (inactive) | > 10 µM | > 10 µM (inactive) | > 10 µM (inactive) | > 10 µM (inactive) | > 10 µM (inactive) | > 10 µM (inactive) | > 10 µM (inactive) | > 10 µM (inactive) | > 10 µM (inactive) | > 10 µM (inactive) | > 10 µM (inactive) | > 10 µM (inactive) |  | > 10 µM (inactive) |  |
| O=C1CCCC/C1=C\c1ccc(Br)cc1 | 15.7 µM (inactive) | 18.5 µM (inactive) | 24.8 µM (inactive) | 17.3 µM (inactive) | 16.6 µM (inactive) |  | 4.2 µM (inactive) | > 100 µM (inactive) | 2.14 µM (inactive) | 15.7 µM (inactive) |  | 12.4 µM (inactive) | 12.6 µM (inactive) | 22.7 µM (inactive) | 22 µM (inactive) | 17.1 µM (inactive) | 23.2 µM (inactive) | 16.1 µM (inactive) | 2.75 µM (inactive) | 24.8 µM (inactive) |
| CCCn1c(SCCSc2c3ccccc3c(-c3nc(F)nc(F)n3)n2CCC)c2ccccc2c1-c1nc(F)nc(F)n1 | 27.3 µM (inactive) | > 100 µM (inactive) | > 100 µM (inactive) | > 100 µM (inactive) | > 100 µM (inactive) | > 100 µM | 27 µM (inactive) | 13.8 µM (inactive) | > 100 µM (inactive) | > 100 µM (inactive) | > 100 µM (inactive) | > 100 µM (inactive) | 46.9 µM (inactive) |  | > 100 µM (inactive) | > 100 µM (inactive) | > 100 µM (inactive) | > 100 µM (inactive) | 82.6 µM (inactive) | > 100 µM (inactive) |
| C[C@@H]1C[C@](O)([C@@H](C)Cl)C(=O)O[C@@H]2CCN3CC=C(COC(=O)[C@]1(C)O)[C@H]23 | > 100 µM (inactive) | > 100 µM (inactive) | > 100 µM (inactive) | > 100 µM (inactive) | > 100 µM (inactive) | > 100 µM | > 100 µM (inactive) | > 100 µM (inactive) |  | > 100 µM (inactive) | > 100 µM (inactive) | > 100 µM (inactive) | > 10 µM (inactive) | > 100 µM (inactive) | > 100 µM (inactive) | > 100 µM (inactive) | > 100 µM (inactive) | > 10 µM (inactive) | > 10 µM (inactive) | > 100 µM (inactive) |
| CO[C@]12CCC(=O)N1C=Cc1c2[nH]c2ccccc12 | > 100 µM (inactive) | > 100 µM (inactive) |  | > 100 µM (inactive) | > 100 µM (inactive) | > 100 µM | > 100 µM (inactive) | > 100 µM (inactive) | > 100 µM (inactive) | > 100 µM (inactive) | > 100 µM (inactive) | > 100 µM (inactive) | > 100 µM (inactive) | > 100 µM (inactive) | > 100 µM (inactive) | > 100 µM (inactive) | > 100 µM (inactive) | > 100 µM (inactive) | > 100 µM (inactive) | > 100 µM (inactive) |
| Cc1nc2c(o1)/C(=N\c1ccccc1)c1nc(C)oc1/C2=N/c1ccccc1 | 29.6 µM (inactive) | 23.7 µM (inactive) | 20.2 µM (inactive) | 19.4 µM (inactive) | 17.7 µM (inactive) | 23.4 µM | 60.5 µM (inactive) | 34.4 µM (inactive) | 27.5 µM (inactive) | 15.3 µM (inactive) | 20.4 µM (inactive) | 36.4 µM (inactive) | 61.1 µM (inactive) | 1.06 µM (active) |  | 24 µM (inactive) | 32.4 µM (inactive) | 17.2 µM (inactive) | 17.9 µM (inactive) | > 10 µM (inactive) |
| Cc1cn(C2CC(O)C(COP(=O)(O)OC3CC(n4c[n+]([BH2-]C#N)c5c(=O)[nH]c(N)nc54)OC3CO)O2)c(=O)[nH]c1=O (stereo unspecified) | > 100 µM (inactive) | > 100 µM (inactive) | > 100 µM (inactive) | > 100 µM (inactive) | > 100 µM (inactive) | > 100 µM | > 100 µM (inactive) | > 100 µM (inactive) | > 100 µM (inactive) | > 100 µM (inactive) | > 100 µM (inactive) |  | > 100 µM (inactive) | > 100 µM (inactive) | > 100 µM (inactive) | > 100 µM (inactive) | > 100 µM (inactive) | > 100 µM (inactive) | > 100 µM (inactive) | > 100 µM (inactive) |
| [N-]=[N+]=NC(CCl)c1cn([C@H]2C[C@H](O)[C@@H](CO)O2)c(=O)[nH]c1=O (stereo partly specified) | > 100 µM (inactive) |  | > 100 µM (inactive) | > 100 µM (inactive) | > 100 µM (inactive) | > 100 µM | > 100 µM (inactive) | > 100 µM (inactive) | > 100 µM (inactive) | > 100 µM (inactive) | > 100 µM (inactive) | > 100 µM (inactive) | > 100 µM (inactive) | > 100 µM (inactive) |  | > 100 µM (inactive) | > 100 µM (inactive) | > 100 µM (inactive) | > 100 µM (inactive) | > 100 µM (inactive) |
